Test results reported in paper PMC4512978, “Synthesis and evaluation in rats of homologous series of [^18F]-labeled dopamine D2/3 receptor agonists based on the 2-aminomethylchroman scaffold as potential PET tracers” (EJNMMI Research, 2015).
Where “and” joins values, the source holds several entries; their conditions need not be identical. Equal entries are not always repeated. Where two headings read alike, the source gives them in different places.

Tests used:
D2/3R [1] = system: D2/3R; design: method as in PMID 24325578; conditions: cited from earlier work; for Striatal SBR % change relative to control condition, Raclopride / Striatal SBR, Raclopride: 10 μM raclopride; for Striatal SBR % change relative to control condition, GTP / Striatal SBR, GTP: 100 μM GTP; for Striatal SBR, Control: radioligand only
D2/3R [2] = test: MicroPET study in rats; assay type: in vivo, Sprague-Dawley rats; conditions: for blood-brain barrier penetration: PET in rats; for Brain uptake, peak: 3 min after radiotracer injection, control rats; for Striatum-to-cerebellum uptake ratio (PET): saline pre-treated rats, peak (45 min post-injection for [^18F]FEt-AMC13 and [^11C]raclopride)
Procedure: Animal experiments were performed by licensed investigators in compliance with the Law on Animal Experiments of The Netherlands. The protocol was approved by the Committee on Animal Ethics of the University of Groningen. Young male (10–12 weeks of age, 300–350 g body weight) Sprague-Dawley rats (Harlan, the Netherlands) were used for all experiments. The rats were maintained at a 12-h light/12-h dark regime and were fed standard laboratory chow ad libitum.
Distribution of the radiotracers was studied in rats pre-treated, at random, with physiological saline (controls) or raclopride tartrate (1 mg/kg calculated per raclopride base, equivalent to 2.9 μmol/kg). Saline and raclopride were administered intravenously (1 mL/kg injected volume).
An additional group of saline pre-treated rats, injected with [^11C]raclopride, served as positive controls for D2/3R-specific brain uptake.
Two rats were scanned simultaneously. Before all manipulations, animals were anesthetized with a mixture of isoflurane/air (inhalation anesthesia, 5 % ratio during induction, 2 % at maintenance). Cannulae were placed into the rats’ left femoral arteries and veins; the operation took 45–50 min. The rats were positioned supine inside the camera (Focus 220 microPET, Siemens-Concorde), one above the other with their heads in the camera’s field of view. A 515-s transmission scan with a Co-57 point source was performed. Tracer was injected through the venous cannula as a slow bolus (1 mL volume, 60 s long) using an infusion pump. The second (upper) animal was injected 16 min after the first (lower).
PET acquisition was started during the injection of radioactivity in the first rat. A 106-min long (76 min long in the case of [^11C]raclopride) list-mode acquisition protocol was used for the scan.
List-mode data from the 106-min-long and 76-min-long scans were reframed into, respectively, 90-min-long and 60-min-long dynamic sequences of 6 × 10, 4 × 30, 2 × 60, 1 × 120, 1 × 180, 4 × 300, 3 × 600, and (for 90-min-long scans) 2 × 900 s frames. The data were reconstructed per time frame using an iterative reconstruction algorithm (attenuation-weighted 2-dimensional ordered-subset expectation maximization, provided by Siemens; 4 iterations, 16 subsets; zoom factor 2). Datasets were fully corrected for random coincidences, scatter, and attenuation. Data from the transmission scan were used for attenuation correction. The final datasets consisted of 95 slices, with a slice thickness of 0.8 mm and an in-plane image matrix size of 128 × 128 and pixel size of 0.47 × 0.47 mm.
Reconstructed images were analyzed with Inveon 2.0 software (Siemens Medical Solutions, USA, Inc). Regions of interest (ROIs) were drawn manually on a T2-weighted MRI template of rat brain around the striatum, brainstem, cortex, hippocampus, hypothalamus, thalamus, olfactory bulbs, and cerebellum around the whole brain and around the pituitary gland. The MRI template was co-registered with the PET scan by image fusion. The time-activity curves (TAC) per ROI were determined in Bq/cm^3 units and converted into standardized uptake values (SUVs).
(§1) Degree of D2/3R-specific binding of the tracers was characterized by BPND (as given above) or the specific binding ratio (SBR) given as target region activity/cerebellar activity - 1. Both were calculated under control conditions and in response to the raclopride challenge.

D2/3R [3] = test: In vitro autoradiography of rat brain slices; assay type: binding, Sprague-Dawley rats
Procedure: In vitro autoradiography assay was performed as previously described. Frozen brains of young (10–12 weeks of age; 300–350 g body weight) male Sprague-Dawley rats (Harlan, Netherlands) were cut at −12 °C into sagittal slices 20 μm thick using a Leica microtome, and the slices were thaw-mounted on Superfrost (70 × 22 mm, Fischer) adhesive slides. Only slices containing both striatal and cerebellar regions were used. The slides with slices mounted them were allowed to dry, then put into storage boxes with silica gel bags and stored at −80 °C.
On the day of the experiment (within 1 week from the preparation of the slices), the slides were taken out of storage and allowed to come to room temperature for 5–10 min. Then, 1–1.2 mL of incubation buffer (50 mM Tris-HCl, 5 mM KCl, 2 mM CaCl2, 2 mM MgCl2, 120 mM NaCl, pH 7.4 25 °C) was applied per slide, and the slides were pre-incubated for 15 min at room temperature. The buffer was then removed, and the slides were placed into staining jars containing radioligand solution (concentration range of 0.1–10 nM) in the incubation buffer with or without 10 μM raclopride (D2/3 antagonist) or 100 μM guanosine-5'-triphosphate sodium salt (GTP, stimulator of G-protein uncoupling from the receptors). After 35 min of incubation at 37 °C, slides were washed once with ice-cold incubation buffer (3.5 min) and dipped for 30 s into ice-cold distilled water to remove buffer salts.
After drying the slides in a stream of room-temperature air, they were exposed on phosphor storage screens for 6–10 h. The storage screens were read by Cyclone Storage Phosphor System (Packard Instruments Co.). Quantification of plate readings was done with OptiQuant software (version 3.00, Packard Instruments Co.).
as §1

[4] = [^18F]FBu-AMC13 0.2 nM, [^18F]FEt-AMC15 5.8 ± 1.6 nM

Brain uptake, peak (D2/3R [2]; PET) [% ID]	SMILES	Striatal SBR % change relative to control condition, Raclopride (D2/3R [1]; [4]) [%]	Striatal SBR, Raclopride (D2/3R [1]; [4])	Striatal SBR % change relative to control condition, GTP (D2/3R [1]; [4]) [%]	Striatal SBR, GTP (D2/3R [1]; [4])	Striatal SBR, Control (D2/3R [1]; [4])	blood-brain barrier penetration (D2/3R [2])	Striatum-to-cerebellum uptake ratio (PET) (D2/3R [2])	further results
0.7	Oc1ccc2c(c1)O[C@@H](CNCc1ccc(OCC[18F])cc1)CC2 [[^18F]FEt-AMC13]	–	–	–	–	–	good blood-brain barrier (BBB) penetration	2.08 and 2.1 and 2.08 ± 0.25	decrease of striatal SBR (D2/3R-specific binding) by raclopride in vitro (D2/3R [3]; 10 μM raclopride, compared to control conditions): 81%; mean striatum-to-cerebellum uptake ratio in vitro (D2/3R [3]; rat brain slices): 4.4; Striatal SBR % change relative to control condition, Raclopride (D2/3R [3]; with 10 μM raclopride): −81%; Striatal SBR, Raclopride (D2/3R [3]; with 10 μM raclopride): 0.63 ± 0.53; Striatal SBR % change relative to control condition, GTP (D2/3R [3]; with 100 μM GTP): −81%; Striatal SBR, GTP (D2/3R [3]; with 100 μM GTP): 0.66 ± 0.52; decrease in D2/3R-specific binding in the striatum in vivo (D2/3R [2]; 1 mg/kg (2.9 μmol/kg) raclopride, range over estimates): 17–39%; decrease of peak PET-based striatal SBR (D2/3R [2]; 1 mg/kg raclopride, p = 0.25): 17%; D2/3R occupancy by the tracer itself (crude estimation) (D2/3R [2]; approach of Skinbjerg et al., all experiments): no more than 3%; peak PET-based striatal SBR (D2/3R [2]; pre-treatment with 1 mg/kg (2.9 μmol/kg) raclopride): 0.90 ± 0.11; peak PET-based striatal SBR (D2/3R [2]; saline pre-treated): 1.08 ± 0.25
0.2	Oc1ccc2c(c1)O[C@@H](CNCCN1CCN(c3ccc(OCC[18F])cc3)CC1)CC2 [[^18F]FEt-AMC15, (R) 1-(4-(2-[^18F]fluoroethoxy)phenyl)-4-(4-(7-hydroxychroman-2-yl)-3-azabutyl)-piperazine]	−60	0.65 ± 0.37	−59	0.67 ± 0.28	1.64 ± 1.04	essentially did not penetrate the BBB	–	effect of raclopride pre-treatment on radioactivity distribution in the brain (D2/3R [2]; 1 mg/kg raclopride): no detectable alterations of radioactivity distribution in the brain; Brain uptake (D2/3R [2]; PET, 60 min post-injection): 0.04 % ID

SMILES	Brain uptake, peak (D2/3R [2]; PET) [% ID]	Striatal SBR % change relative to control condition, Raclopride (D2/3R [1]; [4]) [%]	Striatal SBR, Raclopride (D2/3R [1]; [4])	Striatal SBR % change relative to control condition, GTP (D2/3R [1]; [4]) [%]	Striatal SBR, GTP (D2/3R [1]; [4])	Striatal SBR, Control (D2/3R [1]; [4])	blood-brain barrier penetration (D2/3R [2])	Striatum-to-cerebellum uptake ratio (PET) (D2/3R [2])	further results
Oc1ccc2c(c1)O[C@@H](CNCc1ccc(OCCCC[18F])cc1)CC2 [[^18F]FBu-AMC13, (R)-2-[(4-(4-[^18F]fluorobutoxy)benzylamino)methyl]chroman-7-ol]	0.9	−88	0.10 ± 0.19	−76	0.20 ± 0.16	0.85 ± 0.23	good blood-brain barrier (BBB) penetration	1.41 ± 0.08	Striatal SBR % change relative to control condition, Raclopride (D2/3R [1]; tracer 4.5 ± 3.6 nM): −79%; Striatal SBR, Raclopride (D2/3R [1]; tracer 4.5 ± 3.6 nM): 0.04 ± 0.22; Striatal SBR, Control (D2/3R [1]; tracer 4.5 ± 3.6 nM): 0.19 ± 0.18
